Patent US20150148235A1, “HERBICIDE-RESISTANT SUNFLOWER PLANTS WITH MULTIPLE HERBICIDE RESISTANT ALLELES OF AHASL1 AND METHODS OF USE” (NIDERA S.A., priority 2013, published 2015)

Legend:
[1] = test system: sunflower hybrids and lines (A122T, A205V, A205V/A122T); assay: Field trial North Dakota 2006, phytotoxicity ratings after imazamox or imazapyr, Example 3; format: in vivo, Helianthus annuus; settings: for phytotoxicity: 200 g ai/ha
Protocol: • Spray volume: 10 gallons per acre (GPA) (or 100 liters/ha) for backpack sprayer or 20 GPA (or 200 liters/ha) for tractor mounted boom • Growth Stage at Herbicide Application: 2-4 leaves
Entry 15 (WT Maintainer line) was left unsprayed in all treatment blocks.
Phytotoxicity ratings were assessed at 7 and 21 days following herbicide application.
The data was subjected to an ANOVA analysis and the means from the 3 repetitions are presented in Table 7 (phytotoxicity at 7 days post-treatment) and Table 8 (phytotoxicity at 21 days post-treatment).

[2] = test system: AHAS enzyme, A122T/A205V Heterozygous sunflower; assay: AHAS enzyme activity assay, leaf extract; format: biochemical, Helianthus annuus; settings: A122T/A205V heterozygous hybrid (Set 1); 100 μM
Protocol: (§1) Twelve greenhouse grown sunflower plants from each of the lines depicted in Table 21 were bulked and subjected to an AHAS enzyme activity assay via the method of Singh et al. (1988) Anal. Biochem. 171:173-179. Each activity assay was repeated twice. Due to the large number of samples, the experiment was split into two sets (Table 21).
(§2) Young, actively growing leaves, from four week old plantlets, were ground in a mortar and pestle with liquid N2 and extracted with a buffer composed of 100 mM Pyruvate, 200 mM KH2PO4, 20 mM MgCl2, 2 mM thiamine pyrophosphate and […]. Plant extracts were then spun through a 10 mL Zeba TM desalt spin column (Pierce #89893) as per the manufacturer's recommendation. The inhibition assay was performed as described by Singh et al. (1988) Anal. Biochem. 171:173-179. Assays were conducted in a 96-well format. Fifty μl of inhibitor was added to each well containing 50 μl of soluble protein extract to give final concentrations of 0.78, 1.56, 3.125, 6.25, 12.5, 25, 50 and 100 μM imazamox or 0.78, 1.56, 3.125, 6.25, 12.5, 25, 50 and 100 μM imazapyr. Zero herbicide controls were also included for each line. Reactions were processed as outlined by Singh et al. (1988) Anal. Biochem. 171:173-179. Absorbance was measured at 530 nm. AHAS activity, expressed as the mean of the absorbance values for each treatment, was presented as a percentage of the mean of the zero-herbicide controls.

[3] = test system: AHAS enzyme, A205V Homozygous sunflower; assay: AHAS enzyme activity assay, leaf extract; format: biochemical, Helianthus annuus
Protocol: as §1, §2

[4] = test system: AHAS enzyme, A122T Homozygous sunflower; assay: AHAS enzyme activity assay, leaf extract; format: biochemical, Helianthus annuus
Protocol: as §1, §2

COCc1cnc(C2=NC(C)(C(C)C)C(=O)N2)c(C(=O)O)c1 (centres unmarked) [imazamox]
Phytotoxicity Rating (% Crop Injury) ([1]; 10-hybrid (IMI CMS × GM40 restorer, A205/A122 hetero/double), 200 g ai/ha + 0.25% NIS, 21 DAT): 1.7%
Phytotoxicity Rating (% Crop Injury) ([1]; 11-hybrid (GM40 CMS × IMI restorer, A205/A122 hetero/double), 50 g ai/ha + 0.25% NIS, 7 DAT): 0.0%
Phytotoxicity Rating (% Crop Injury) ([1]; 11-hybrid (GM40 CMS × IMI restorer, A205/A122 hetero/double), 50 g ai/ha + 0.25% NIS, 21 DAT): 0.0%
Phytotoxicity Rating (% Crop Injury) ([1]; 11-hybrid (GM40 CMS × IMI restorer, A205/A122 hetero/double), 100 g ai/ha + 0.25% NIS, 7 DAT): 3.3%
Phytotoxicity Rating (% Crop Injury) ([1]; 11-hybrid (GM40 CMS × IMI restorer, A205/A122 hetero/double), 100 g ai/ha + 0.25% NIS, 21 DAT): 0.0%
Phytotoxicity Rating (% Crop Injury) ([1]; 11-hybrid (GM40 CMS × IMI restorer, A205/A122 hetero/double), 200 g ai/ha + 0.25% NIS, 7 DAT): 11.7%
Phytotoxicity Rating (% Crop Injury) ([1]; 11-hybrid (GM40 CMS × IMI restorer, A205/A122 hetero/double), 200 g ai/ha + 0.25% NIS, 21 DAT): 3.3%
Phytotoxicity Rating (% Crop Injury) ([1]; 12-hybrid (IMI CMS × GM40 restorer, A205/A122 hetero/double), 50 g ai/ha + 0.25% NIS, 7 DAT): 10.0%
Phytotoxicity Rating (% Crop Injury) ([1]; 12-hybrid (IMI CMS × GM40 restorer, A205/A122 hetero/double), 50 g ai/ha + 0.25% NIS, 21 DAT): 3.3%
Phytotoxicity Rating (% Crop Injury) ([1]; 12-hybrid (IMI CMS × GM40 restorer, A205/A122 hetero/double), 100 g ai/ha + 0.25% NIS, 7 DAT): 10.0%
Phytotoxicity Rating (% Crop Injury) ([1]; 12-hybrid (IMI CMS × GM40 restorer, A205/A122 hetero/double), 100 g ai/ha + 0.25% NIS, 21 DAT): 3.3%
Phytotoxicity Rating (% Crop Injury) ([1]; 12-hybrid (IMI CMS × GM40 restorer, A205/A122 hetero/double), 200 g ai/ha + 0.25% NIS, 7 DAT): 11.7%
Phytotoxicity Rating (% Crop Injury) ([1]; 12-hybrid (IMI CMS × GM40 restorer, A205/A122 hetero/double), 200 g ai/ha + 0.25% NIS, 21 DAT): 3.3%
Phytotoxicity Rating (% Crop Injury) ([1]; 13-hybrid (GM40 CMS × GM40 restorer, A122 homo), 50 g ai/ha + 0.25% NIS, 7 DAT): 3.3%
Phytotoxicity Rating (% Crop Injury) ([1]; 13-hybrid (GM40 CMS × GM40 restorer, A122 homo), 50 g ai/ha + 0.25% NIS, 21 DAT): 0.0%
Phytotoxicity Rating (% Crop Injury) ([1]; 13-hybrid (GM40 CMS × GM40 restorer, A122 homo), 100 g ai/ha + 0.25% NIS, 7 DAT): 5.0%
Phytotoxicity Rating (% Crop Injury) ([1]; 13-hybrid (GM40 CMS × GM40 restorer, A122 homo), 100 g ai/ha + 0.25% NIS, 21 DAT): 1.7%
Phytotoxicity Rating (% Crop Injury) ([1]; 13-hybrid (GM40 CMS × GM40 restorer, A122 homo), 200 g ai/ha + 0.25% NIS, 7 DAT): 10.0%
Phytotoxicity Rating (% Crop Injury) ([1]; 13-hybrid (GM40 CMS × GM40 restorer, A122 homo), 200 g ai/ha + 0.25% NIS, 21 DAT): 3.3%
Phytotoxicity Rating (% Crop Injury) ([1]; 14-hybrid (GM40 CMS × GM40 restorer, A122 homo), 50 g ai/ha + 0.25% NIS, 7 DAT): 5.0%
Phytotoxicity Rating (% Crop Injury) ([1]; 14-hybrid (GM40 CMS × GM40 restorer, A122 homo), 50 g ai/ha + 0.25% NIS, 21 DAT): 0.0%
Phytotoxicity Rating (% Crop Injury) ([1]; 14-hybrid (GM40 CMS × GM40 restorer, A122 homo), 100 g ai/ha + 0.25% NIS, 7 DAT): 6.7%
Phytotoxicity Rating (% Crop Injury) ([1]; 14-hybrid (GM40 CMS × GM40 restorer, A122 homo), 100 g ai/ha + 0.25% NIS, 21 DAT): 3.3%
Phytotoxicity Rating (% Crop Injury) ([1]; 14-hybrid (GM40 CMS × GM40 restorer, A122 homo), 200 g ai/ha + 0.25% NIS, 7 DAT): 11.7%
Phytotoxicity Rating (% Crop Injury) ([1]; 14-hybrid (GM40 CMS × GM40 restorer, A122 homo), 200 g ai/ha + 0.25% NIS, 21 DAT): 5.0%
Phytotoxicity Rating (% Crop Injury) ([1]; 15-hybrid (WT × GM40 restorer, A122 hetero), 50 g ai/ha + 0.25% NIS, 7 DAT): 10.0%
Phytotoxicity Rating (% Crop Injury) ([1]; 15-hybrid (WT × GM40 restorer, A122 hetero), 50 g ai/ha + 0.25% NIS, 21 DAT): 6.7%
Phytotoxicity Rating (% Crop Injury) ([1]; 15-hybrid (WT × GM40 restorer, A122 hetero), 100 g ai/ha + 0.25% NIS, 7 DAT): 11.7%
Phytotoxicity Rating (% Crop Injury) ([1]; 15-hybrid (WT × GM40 restorer, A122 hetero), 100 g ai/ha + 0.25% NIS, 21 DAT): 11.7%
Phytotoxicity Rating (% Crop Injury) ([1]; 15-hybrid (WT × GM40 restorer, A122 hetero), 200 g ai/ha + 0.25% NIS, 7 DAT): 16.7%
Phytotoxicity Rating (% Crop Injury) ([1]; 15-hybrid (WT × GM40 restorer, A122 hetero), 200 g ai/ha + 0.25% NIS, 21 DAT): 30.0%
Phytotoxicity Rating (% Crop Injury) ([1]; 16-hybrid (WT × GM40 restorer, A122 hetero), 50 g ai/ha + 0.25% NIS, 7 DAT): 10.0%
Phytotoxicity Rating (% Crop Injury) ([1]; 16-hybrid (WT × GM40 restorer, A122 hetero), 50 g ai/ha + 0.25% NIS, 21 DAT): 6.7%
Phytotoxicity Rating (% Crop Injury) ([1]; 16-hybrid (WT × GM40 restorer, A122 hetero), 100 g ai/ha + 0.25% NIS, 7 DAT): 15.0%
Phytotoxicity Rating (% Crop Injury) ([1]; 16-hybrid (WT × GM40 restorer, A122 hetero), 100 g ai/ha + 0.25% NIS, 21 DAT): 16.7%
Phytotoxicity Rating (% Crop Injury) ([1]; 16-hybrid (WT × GM40 restorer, A122 hetero), 200 g ai/ha + 0.25% NIS, 7 DAT): 23.3%
Phytotoxicity Rating (% Crop Injury) ([1]; 16-hybrid (WT × GM40 restorer, A122 hetero), 200 g ai/ha + 0.25% NIS, 21 DAT): 31.7%
phytotoxicity ([1]; heterozygous A205V/A122T lines, 21 DAT): 2-3%
phytotoxicity ([1]; homozygous A122T/A122T lines, 21 DAT): 3-5%
phytotoxicity ([1]; homozygous A205V/A205V lines, 21 DAT): 15-22%
AHAS activity [2]: 59%
AHAS activity ([3]; A205V homozygous (Set 2), 50 μM): 30%
AHAS activity ([3]; A205V homozygous (Set 2), 100 μM): 26%
AHAS activity ([3]; A205V homozygous hybrid (Set 1), 100 μM): 36 % of untreated control
AHAS activity ([4]; A122T homozygous (Set 2), 50 μM): 63 % relative to the untreated co
AHAS activity ([4]; A122T homozygous (Set 2), 100 μM): 60 % relative to the untreated co
AHAS activity ([4]; A122T homozygous hybrid (Set 1), 100 μM): 69 % of untreated control
